Experimental findings from US20170107503A1, “NOVEL METHODS, POLYPEPTIDES AND USES THEREOF” (priority 2014, published 2017) are described below.

Holding throughout (format): biochemical
Common to all, as to details: WT-Trp = 100

In experiment [1] the target is T1, Atlantic cod (Gadus morhua) trypsin I, wildtype, purified from Atlantic cod (WT-Trp), SEQ ID NO: 1 (Gadus morhua, UniProt P16049).
T1 construct: from tissue
T1 sequence (P16049 20-241): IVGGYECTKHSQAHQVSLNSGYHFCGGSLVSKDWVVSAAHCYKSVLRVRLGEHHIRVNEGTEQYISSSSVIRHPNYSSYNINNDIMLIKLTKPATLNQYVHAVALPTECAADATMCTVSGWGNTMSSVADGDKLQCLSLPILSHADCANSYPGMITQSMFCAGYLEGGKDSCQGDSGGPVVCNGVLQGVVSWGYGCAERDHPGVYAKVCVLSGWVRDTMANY
The experiment is described as follows: Activity assay to determine kinetic constants, WT-Trp (purified). How it is done: The following polypeptides were obtained or produced: • (a) Wildtype trypsin I purified from Atlantic cod (“WT-Tryp” or “wildtype”); • (b) Recombinantly expressed wildtype trypsin I of Atlantic cod (SEQ ID NO:1, “R-Tryp”); and • (c) Thirty-eight different mutated versions of trypsin I of Atlantic cod (i.e. mutated sequences of SEQ ID NO:1).
(§1) The substrate (Gly-Pro-Arg) was used at concentrations 0.005-0.15 mM in assay buffer containing 1% DMSO. 245 μL of substrate solutions were pipetted into a 96-well plate. The reaction was started by adding 5 μL of the sample mixture (above) and monitored at 410 nm in a SpectraMax plate reader. Kinetic measurement was performed every minute of a continuous 15-min run.

Experiment [2] has as its target T2, Atlantic cod (Gadus morhua) trypsin I, recombinant wildtype, EZA-001, SEQ ID NO: 1 (Gadus morhua, UniProt P16049).
T2 construct: made in house; host or cells: E. coli BL21 (DE3)
T2 sequence (P16049 20-241): T1 sequence (P16049 20-241)
The experiment is described as follows: Activity assay to determine kinetic constants, EZA-001. How it is done:
(§2) Polypeptides corresponding to the wildtype amino acid sequence of trypsin I from Atlantic cod and thirty-eight mutated versions thereof were produced using the methods described in Example A.
(§3) Activation of recombinant enzymes (approximately 0.01 mg/ml) was achieved by adding wild type trypsin (0.2 U/ml) at room temperature and incubate for 24 hours. The mixture was made in 20 mM Tris-HCl, 1 mM CaCl2, 50% glycerol, pH 8.0 to a final volume of 200 μl.
as §1

Experiment [3] has as its system Atlantic cod (Gadus morhua) trypsin I variant EZA-002, N244S, Y245N, S87K in SEQ ID NO: 1 (N240S, Y241N, S88K in SEQ ID NO: 2). The experiment is described as follows: Activity assay to determine kinetic constants, EZA-002. Here is the method: as §2, §3, §1
Experiment [4] concerns the target T3, Atlantic cod (Gadus morhua) trypsin I variant EZA-003, K154T in SEQ ID NO: 1 (K152T in SEQ ID NO: 2) (Gadus morhua, UniProt P16049, K152T).
T3 construct: made in house; host or cells: E. coli BL21 (DE3)
The experiment is described as follows: Activity assay to determine kinetic constants, EZA-003. Here is the method: as §2, §3, §1

In experiment [5] the test system is Atlantic cod (Gadus morhua) trypsin I variant EZA-004, K154L in SEQ ID NO: 1 (K152L in SEQ ID NO: 2). The experiment is described as follows: Activity assay to determine kinetic constants, EZA-004. How it is done:
as §2, §3, §1

Experiment [6] relates to Atlantic cod (Gadus morhua) trypsin I variant EZA-005, K154V in SEQ ID NO: 1 (K152V in SEQ ID NO: 2). The experiment is described as follows: Activity assay to determine kinetic constants, EZA-005. How it is done:
as §2, §3, §1

Experiment [7] has as its target T4, Atlantic cod (Gadus morhua) trypsin I variant EZA-006, K154E in SEQ ID NO: 1 (K152E in SEQ ID NO: 2) (Gadus morhua, UniProt P16049, K152E).
T4 construct: made in house; host or cells: E. coli BL21 (DE3)
The experiment is described as follows: Activity assay to determine kinetic constants, EZA-006. How it is done:
as §2, §3, §1

Experiment [8] has as its system Atlantic cod (Gadus morhua) trypsin I variant EZA-007, N98T in SEQ ID NO: 1 (N99T in SEQ ID NO: 2). The experiment is described as follows: Activity assay to determine kinetic constants, EZA-007. Here is the method:
as §2, §3, §1

Experiment [9] relates to Atlantic cod (Gadus morhua) trypsin I variant EZA-008, I99L in SEQ ID NO: 1 (I100L in SEQ ID NO: 2). The experiment is described as follows: Activity assay to determine kinetic constants, EZA-008. How it is done:
as §2, §3, §1

Experiment [10] deals with Atlantic cod (Gadus morhua) trypsin I variant EZA-009, L185G, P225Y in SEQ ID NO: 1 (L184G, P221Y in SEQ ID NO: 2). The experiment is described as follows: Activity assay to determine kinetic constants, EZA-009. How it is done:
as §2, §3, §1

T3 sequence (P16049 20-241 K152T): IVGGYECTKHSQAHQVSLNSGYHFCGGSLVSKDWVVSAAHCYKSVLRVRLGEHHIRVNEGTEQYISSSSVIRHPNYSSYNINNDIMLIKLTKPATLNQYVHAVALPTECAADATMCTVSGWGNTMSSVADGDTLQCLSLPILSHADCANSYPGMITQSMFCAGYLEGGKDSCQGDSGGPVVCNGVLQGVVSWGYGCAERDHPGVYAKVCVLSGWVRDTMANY
T4 sequence (P16049 20-241 K152E): as the sequence (P16049 20-241 K152T) above, with T133E counted along it

For the substance Gly-Pro-Arg, in experiment [1], the “Vmax (Kcat), Relative to WT-Trp” value is on record as 100. The “Vmax, Relative to WT-Trp” value in experiment [2] came out at 99; in experiment [3], 99; in experiment [4], 96; in experiment [5] it was 82; in [6], 96; in experiment [7], 98. Moreover, the “Vmax, Relative to WT-Trp” value in experiment [8] is on record as 99; in experiment [9], 95; in experiment [10] it was 98.
